SMILES strings stand for the structures.

By melting point is commonly meant the temperature of the solid-liquid transition.

As for `O=C(Nc1ccc(N2CCOCC2)c(C(F)(F)F)c1)c1ccc(F)c(OCc2cccnc2)c1`, the melting point lay within 160 to 161 °C.

The compound `O=C(O)CCCc1cc2nc(Cl)ccc2n1S(=O)(=O)c1ccc(-c2cnco2)cc1` returned a melting point of 169 to 176 °C. Under `O=C1C(=O)c2ccccc2C2=C1SCC1(CCN(C3CCCCC3)CC1)O2` stands 195 to 196 °C; under `CC(C)Cc1cc(OCC(=O)N(C)C)c2[nH]nc(Nc3nccs3)c2c1`, 96 to 98 °C. Under `CN1C(=O)CC[C@]2(C)c3ccc(-c4ccc(Cl)cc4)cc3CC[C@@H]12` stands 192 °C. `CC1=Nc2cc3c(cc2C1(C)C)N=C(C)C3(C)C` showed a melting point of 190 to 195 °C. In the case of `CC(C)C(C)NC1=Nc2ccc(Cl)cc2S(=O)(=O)N1C` (stereo not given) it was 102 to 105 °C.

For `C=CC(c1ccc(F)cc1)c1c(C)c(NC=O)c(C)c(C)c1O` (stereo not given), the melting point was in the range of 168 to 170 °C. In the case of `CCOC(=O)c1cnc2sc(C)c(C)n12` it was 60 to 61 °C; in that of `O=c1[nH]nc(CCCN2CCN(c3cccc(Cl)c3)CC2)n1CCOc1ccccc1`, 150 to 153 °C; in that of `c1ccc2c(OCC3CO3)c(OCC3CO3)ccc2c1` (stereo not given), 131 to 133 °C. Under `CN(C)c1ccc(-c2nc(Cl)c(CC#N)n2Cc2ccccc2)cc1Cl` stands 142 to 143 °C; under `CCc1cc(NC(=O)N2CCc3cc(OC)c(C(F)(F)F)cc32)cc(-c2cccnc2)c1`, 205 to 207 °C; under `COC(=O)c1cc(-n2cccc2)ccc1C`, 56 to 57 °C. In the case of `CN1CCN(c2ccc(/C=C/C(=O)O)cc2)CC1` it was 223 to 226 °C; in that of `O=C(NCc1ccc(Cl)cc1)c1cn2c3c(cc(CCCO)cc3c1=O)OCC2(CO)CO`, 173 to 174 °C.

Take `O=C(NCc1ccc2ccn(C3CCN(CCc4ccc(F)cc4)CC3)c2c1)C(F)F`: the melting point lay within 79 to 80 °C. In the case of `COc1ccc2ccc3c4cc5c(cc4nnc3c2c1)OCO5` it was 259 to 261 °C; in that of `COC(=NC(=O)Nc1ccc(OC(F)(F)F)cc1)c1ccccc1Cl`, 148 to 149 °C.

Compound `CC(C)[C@H](NC(=O)OCc1ccccc1)C(=O)N[C@H](C=O)Cc1ccc(OCc2ccccc2)cc1` yielded a melting point of 160 to 162 °C.

As to `CCc1nc2cc(NC(C)=O)c(Cl)cc2n1-c1ccc(CCNC(=O)NS(=O)(=O)c2ccc(C)cc2)cc1`, the melting point lay in the range of 125 to 133 °C. Under `OC1CSC(Oc2cccc(-c3ncccc3F)c2)C(O)C1O` (stereo not given) stands 150 °C; under `COC(=O)CCCc1cc2nc(Cl)ccc2n1S(=O)(=O)c1cccc(-c2ccnc(C)n2)c1`, 140 to 144 °C; under `Cc1oc(-c2ccccc2)nc1COc1ccc(Cn2cc(CCC(=O)O)c(-c3cccs3)n2)cc1`, 172 to 173 °C. Under `COc1ccc2c(c1)Nc1[nH]cnc(=O)c1C2` stands more than 300 °C.

Turning to `CC(=Cc1ccc(O)c(Br)c1)[N+](=O)[O-]`, the melting point fell in the range of 122 to 124 °C.

Turning to `O=C(CCCC(=O)N1CCC[C@H]1C(=O)O)c1ccccc1`, the melting point was 102 to 105 °C.

Compound `CN1C(=O)C(c2ccc(OC(F)F)cc2)(c2cccc(CCCC(F)(F)F)c2)N=C1N` (stereo not given) gave a melting point of 70 °C.

The compound `CC(=O)NC[C@H]1CN(c2ccc(-n3nccc3-c3ccc(Br)cn3)c(F)c2)C(=O)O1` had a melting point of 92.7 to 95.4 °C. Under `CCCn1nnc(-c2cnc3ccccn3c2=O)n1` stands 115 to 116 °C; under `CCOC(=O)N1CCc2nnc(N(C)N)cc2C1`, 121 to 123 °C; under `Cc1ccccc1-c1cn(C)cc(-c2cccc(C(F)(F)F)c2)c1=O`, 144 to 147 °C.

Regarding `COc1nc(NC(=O)NS(=O)(=O)c2ccccc2OC(Cl)=CCl)nc(OC)n1`, the melting point was in the range of 199 to 200 °C.

`CN(CCCNc1ncc(Cc2ccccc2Cl)c(=O)[nH]1)c1ccccn1`: the melting point lay in the range of 47 to 49 °C. In the case of `C=CCc1ccc2oc(C=CC(=O)OCC)c(C)c2c1O` it was 125 to 127 °C; in that of `CC(C)n1nc(-c2sc(NC(=O)OC(C)(C)C)nc2-c2ccccc2)ccc1=O`, 198 to 199 °C; in that of `COc1ccc2c(c1)C(=O)NCCS2`, 164 to 166 °C. Take `CCCCCCCCCCCCc1ccc(S(=O)(=O)Nc2nnc(C(C)(C)C)s2)cc1`: the melting point was 117 to 118 °C. As for `Nc1cccc(C(=O)N2CC3CC(CN(Cc4ccccc4)C3)C2)c1`, the melting point came to 178 °C. In the case of `COc1ccc(C2NC(=S)NC(C)=C2C(C)=O)cc1` (racemic) it was 175 °C; in that of `CCCCCCCCCCCCn1nnc(C(C(=O)O)c2ccccc2)n1` (stereo not given), 55 to 57 °C; in that of `CNC1Cc2ccccc2C1Nc1ccccc1` (stereo not given), 121 to 122 °C.

Compound `CCOC(=O)CCc1cc(C(=O)c2cccc(C(=O)OCC)c2)ccc1/C=C\CCCCO` had a melting point of 48 to 50 °C. Under `CCCCCC(=N)NC(=S)Nc1ccc(Cl)cc1` stands 100 to 102 °C; under `Clc1ccc2c(c1)C(c1ccccc1)=NCCN2C1=NCCO1`, 125 to 126 °C. Under `CC1(C)SCN(C(=O)[C@@H](O)[C@H](Cc2ccccc2)NC(=O)O[C@H]2CCOC2)[C@@H]1C(=O)N[C@H]1CCCc2ccccc21` stands 103 to 105 °C.

As to `OCCc1cccc2c(-c3ccccc3)c(Br)oc12`, the melting point lay within 108 to 112 °C. Regarding `Cc1ncc(C(=O)O)c(C2=NC(C)(C(C)C)C(=O)N2)n1` (stereo not given), the melting point was in the range of 56 to 57 °C.

For the compound `COc1ccc(S(=O)(=O)Nc2cccnc2Nc2cccc(OC)c2)cc1`, the melting point is 161 to 162 °C.

The compound `CNC(=O)NCCN1CCC(Nc2nc3ccccc3n2Cc2ccc(F)cc2)C1` (stereo not given) registered a melting point of 161 °C. `CCOC(=O)C(CC(=O)c1ccc(Oc2ccc(Cl)cc2)cc1)SC(C)=O` (stereo not given): the melting point was 75.5 to 77 °C. In turn, `CCOC(=O)CNC(=O)c1csc(NC(=N)N)n1` came in with a melting point of 190 °C. In the case of `CCc1nn(C)c(CC)c1NC(N)=S` it was 234 to 235 °C.

`Nc1ccc2c(-c3ccccc3)c([N+](=O)[O-])oc2c1` registered a melting point of 212 to 214 °C. Under `CC(C)(C)OC(=O)N1CCC=C(Cc2cn(S(=O)(=O)c3ccccc3)c3ccc(F)cc23)C1` stands 63 to 65 °C.

`CC(C)c1ccc(-c2c(Cl)c(CCl)nc3sc4c(c23)CCN(Cc2ccccc2)C4)cc1`: the melting point fell in the range of 190 to 192 °C. Under `COC(=O)Nc1cc(F)c(C#N)cc1F` stands 129 °C; under `O=CNC1=NN(c2ccccc2)CC1`, 140 to 141 °C; under `Cc1cc(C(=O)c2ccccc2)c(OCCCCCCCCO)cc1N(C)C`, 56.9 °C. In the case of `N#Cc1cc(Cl)ccc1-c1ccc(C(O)CCC(=O)O)cc1` (stereo not given) it was 168 to 169 °C; in that of `Cc1cc(C)cc(Cc2c(C(C)C)c(=O)[nH]c(=O)n2C/C=C/c2ccccc2)c1`, 180 to 181 °C; in that of `O=C(Nc1ncnc2c1c(Cl)cn2C1CC(O)C(CO)O1)c1ccccc1` (stereo not given), 190 °C. Take `Nc1ccc(OCC(=O)OCCOC(=O)COc2ccc(N)cc2)cc1`: the melting point was 124 to 126 °C. The compound `O=C1CC2(CCCCC2Cc2ccccc2)SCCN1` (stereo not given) registered a melting point of 130 to 135 °C. In the case of `CCCc1c(C(C)=O)c2ccc(C(N)=O)cc2n1Cc1ccccc1Cl` it was 208 to 211 °C; in that of `COc1cc(C2CCN(C[C@H](Oc3ncc4ccc(-c5ccccc5N(C)S(C)(=O)=O)n4n3)C(F)(F)F)CC2)ccc1N`, 85 to 96 °C. In the case of `CN(C)S(=O)(=O)N[C@@H](Cc1ccc(Nc2nccc3cnccc23)cc1)C(=O)O` it was 211 °C; in that of `COc1cc(O)ccc1C=CC(=O)CC(C)=O`, 139 to 142 °C. In the case of `Cc1nc(N)ccc1NC(=NC#N)Oc1ccccc1` it was 189 to 190 °C. With `C#CCN1C(=O)COc2cc(F)c(-n3nc4n(c3=O)CCS4)cc21`, the melting point lay in the range of 211 to 213 °C. Under `CON(C)C(=O)c1ccc(Cl)c(Cl)c1` stands 39.5 to 43.2 °C. Under `CCn1cc(C(=O)O)c(=O)c2cc(F)c(N3CCSC3)nc21` stands 268 to 270 °C. In turn, `COc1ccccc1N1CCC(CNC[C@H]2COc3ccccc3O2)CC1` registered a melting point of 78 to 79 °C.

With `FC(F)(F)c1ccc(Cl)cc1CN1CCNc2ncc(-c3cn[nH]c3)cc21`, the melting point was determined as 271 °C. Under `O=C(O)CCc1ocnc1-c1ccccc1` stands 142 to 143 °C; under `CC(=O)NCC1CN(c2cc(F)c(N3CCN(C(=O)OC(C)(C)C)CC3)c(F)c2)C(=O)O1` (stereo not given), 177 to 179 °C. In the case of `O=c1c2cc(Cl)ccc2nc2n1CCCC2=Cc1ccccc1` it was 121 to 123 °C; in that of `CC(=O)n1ccc2c(C=O)ccc(OCc3ccccc3)c21`, 77 to 78 °C; in that of `O=C(O)c1cn2c3c(cccc3c1=O)C1CCCCC12` (stereo not given), 238 to 241 °C. In turn, `CN(C)c1cccc2c(S(=O)(=O)NCC(=O)N3CCCC3C(=O)NC(C=O)CCCN(C(=N)N)C(=O)OCc3ccccc3)cccc12` (stereo not given) showed a melting point of 105 to 115 °C. The compound `N#Cc1nn(-c2c(Cl)cc(C(F)(F)F)cc2Cl)cc1C=NO` registered a melting point of 170 °C. As to `O=C(NCc1ccn(C2=CC3=C(CC2)CCc2[nH]c(=O)c(=O)n(O)c23)c1)Nc1ccc(C(=O)O)cc1`, the melting point is more than 300 °C. Under `O=C(CCCCCN1CCN(c2cccc(C(F)(F)F)c2)CC1)N1Cc2ccccc2C1` stands 100 to 105 °C.

In turn, `CCOc1nnc(NCc2ccc(OC)c(Cl)c2)c2cc(Cl)ccc12` registered a melting point of 111 to 115 °C. Under `COC(=O)C(O)c1cc2c(cc1Cl)OCO2` (stereo not given) stands 66 to 68 °C; under `CN1CC(CN)Oc2c(-c3cccc(Cl)c3)cccc21` (stereo not given), 134 °C; under `Cc1c(C(=O)O)ccc(S(C)(=O)=O)c1-c1ccc(S(C)(=O)=O)cc1`, 214 to 215 °C. In the case of `COC(=O)C1=C(C)Nc2nc[nH]c(=O)c2C1c1cccc([N+](=O)[O-])c1` (stereo not given) it was 289 to 290 °C; in that of `Cn1cc(C=O)c(-c2ccoc2)n1`, 77 to 78 °C; in that of `CCC(=O)Nc1nc2cccc(C)c2c(=O)o1`, 108 to 109 °C.

For the origin of these results see a melting point compilation (Tetko et al.; mined from patent text by program, amines drawn as free bases though some values may be those of a salt).
